Measurements: patent US20120128665A1, “PRESELECTION OF SUBJECTS FOR THERAPEUTIC TREATMENT BASED ON HYPOXIC STATUS” (SYNTA PHARMACEUTICALS CORP., priority 2010, published 2012)
Like-named read-outs stand apart in the source and are kept apart here.

Key:
[1] = system: phosphorylated RPS6 (ribosomal protein S6); details: TSC1-deficient cells; cited from earlier work
mTORC2 = mTORC2 (Homo sapiens, UniProt P42345); details: immune-kinase assays; cited from earlier work
[2] = system: HCT116 tumors vs 786O tumors; assay: response of hypoxic vs non-hypoxic tumors; format: in vivo, nude mice; details: doses as in the 3rd table
mTORC1 = mTORC1 (Homo sapiens, UniProt P42345); details: immune-kinase assays; cited from earlier work
[3] = system: HCT116 human colon carcinoma xenograft; assay: HCT116 xenograft model (hypoxic tumor); format: in vivo, nude mice
Procedure: (§1) Human tumor cell lines HCT116 (ATCC #CRL-247; Schroy PC, et al. Cancer 76:201-209, 1995) and 786-O (ATCC #CRL-1932; Williams RD, et al. In Vitro 12:623-627, 1976), were obtained from the American Type Culture Collection (Manassus, Va., USA) were cultured using routine methods until a sufficient number of cells were obtained for implantation. Studies were conducted on animals between 7 and 12 weeks of age at implantation. To implant HCT116 tumor cells into nude mice, the cells were trypsinized, washed in PBS and resuspended at a concentration of 75×10^6 cells/ml in McCoy's modified medium with 50% of BD Matrigel® Basement Membrane Matrix (BD Biosciences®, Bedford, Mass., USA). To implant 786-O tumor cells into nude mice, the cells were trypsinized as above, washed in PBS and resuspended at a concentration of 75×10^6 cells/ml in RPMI 1640 medium with 50% of BD Matrigel® Basement Membrane Matrix. Using a 27 gauge needle and 1 cc syringe, 0.1 ml of the cell suspension was injected into the corpus adiposum of nude mice. The corpus adiposum is a fat body located in the ventral abdominal vicera in the right quadrant of the abdomen at the juncture of the os coxae (pelvic bone) and the os femoris (femur). The location permits palpation and measurement of the tumors using external calipers. Tumor volumes (V) were calculated by caliper measurement of the width (W), length (L) and thickness (T) of tumors using the following formula: V=0.5236×(L×W×T). Animals were randomized into treatment groups so that the average tumor volumes of each group were similar at the start of dosing.
(§2) A tumor model in which the tumors have relatively high and low levels of LDH5, indicating high and low levels of hypoxia, using human tumor cell lines HCT116 and 786-O was established as set forth in the previous example.
(§3) As above, HCT116 and 786-O cells were cultured and implanted into nude mice using the methods in the previous example. Tumor growth was measured using calipers. Prior to treatment with the various agents, tumors were permitted to develop in vivo until they reached approximately 150 mm^3 in volume, which typically required 2-3 weeks following implantation. Animals were randomized into treatment groups so that the average tumor volumes of each group were similar at the start of dosing.
(§4) Tumor volume was monitored throughout the course of the study, until up to about 40 days from the date of tumor implantation. The exact number of days of the study depended on a number of factors including, for example, the number of days from implantation for the tumors to reach the desired volume.

[4] = system: metastatic colorectal cancer (mCRC); details: P <0.001, cited from earlier work
pancreatic cancer = details: PTK787 and gemcitabine, cited from earlier work
[5] = system: 786-O human renal carcinoma xenograft; assay: 786-O xenograft model (non-hypoxic tumor); format: in vivo, nude mice
Procedure: as §1, §2, §3, §4

[6] = system: mCRC pretreated with 5-FU/irinotecan; details: cited from earlier work
[7] = system: metastatic colorectal cancer (mCRC); details: cited from earlier work
[8] = system: locally advanced, unresectable or metastatic pancreatic cancer; details: 100 mg cohort, erlotinib arm = plus gemcitabine, comparator gemcitabine alone, cited from earlier work; for progression free survival: p=0.006; for survival: p=0.028
[9] = system: locally advanced or metastatic NSCLC; details: maintenance, cited from earlier work
JAK2V617F = JAK2V617F (Homo sapiens, UniProt O60674, V617F); details: cited from earlier work
[10] = system: locally advanced or metastatic NSCLC after failure of at least one chemotherapy regimen; details: erlotinib 150 mg orally once daily; cited from earlier work
angiogenesis = details: mouse model; cited from earlier work
PDGFR-β = PDGFR-β (Homo sapiens, UniProt P09619); details: in vitro; cited from earlier work
VEGFR-2 [11] = molecular target: T1, VEGFR-2 (Mus musculus, UniProt P35918); details: in vivo, cited from earlier work
T1 construct: from tissue; host or cells: mouse lungs (in vivo)

human tumor xenografts = details: mice; cited from earlier work
[12] = system: renal cell carcinoma cell lines; details: cited from earlier work
RCC and poor prognosis = details: cited from earlier work
[13] = system: advanced RCC and poor prognosis; details: cited from earlier work; for progression-free survival / median overall survival: single agents; for progression-free survival: P=0.0001; for median overall survival: P=0.0078
VEGFR-2 [14] = molecular target: VEGFR-2 (Homo sapiens, UniProt P35968); details: in vitro; cited from earlier work
renal cancer = details: bevacizumab arm = with interferon-alpha; comparator interferon-alpha alone; cited from earlier work
[15] = 140 subjects with elevated LDH, log-rank p<0.005
[16] = 264 subjects with normal LDH, log-rank p=0.514

T1 sequence (P35918 20-1345): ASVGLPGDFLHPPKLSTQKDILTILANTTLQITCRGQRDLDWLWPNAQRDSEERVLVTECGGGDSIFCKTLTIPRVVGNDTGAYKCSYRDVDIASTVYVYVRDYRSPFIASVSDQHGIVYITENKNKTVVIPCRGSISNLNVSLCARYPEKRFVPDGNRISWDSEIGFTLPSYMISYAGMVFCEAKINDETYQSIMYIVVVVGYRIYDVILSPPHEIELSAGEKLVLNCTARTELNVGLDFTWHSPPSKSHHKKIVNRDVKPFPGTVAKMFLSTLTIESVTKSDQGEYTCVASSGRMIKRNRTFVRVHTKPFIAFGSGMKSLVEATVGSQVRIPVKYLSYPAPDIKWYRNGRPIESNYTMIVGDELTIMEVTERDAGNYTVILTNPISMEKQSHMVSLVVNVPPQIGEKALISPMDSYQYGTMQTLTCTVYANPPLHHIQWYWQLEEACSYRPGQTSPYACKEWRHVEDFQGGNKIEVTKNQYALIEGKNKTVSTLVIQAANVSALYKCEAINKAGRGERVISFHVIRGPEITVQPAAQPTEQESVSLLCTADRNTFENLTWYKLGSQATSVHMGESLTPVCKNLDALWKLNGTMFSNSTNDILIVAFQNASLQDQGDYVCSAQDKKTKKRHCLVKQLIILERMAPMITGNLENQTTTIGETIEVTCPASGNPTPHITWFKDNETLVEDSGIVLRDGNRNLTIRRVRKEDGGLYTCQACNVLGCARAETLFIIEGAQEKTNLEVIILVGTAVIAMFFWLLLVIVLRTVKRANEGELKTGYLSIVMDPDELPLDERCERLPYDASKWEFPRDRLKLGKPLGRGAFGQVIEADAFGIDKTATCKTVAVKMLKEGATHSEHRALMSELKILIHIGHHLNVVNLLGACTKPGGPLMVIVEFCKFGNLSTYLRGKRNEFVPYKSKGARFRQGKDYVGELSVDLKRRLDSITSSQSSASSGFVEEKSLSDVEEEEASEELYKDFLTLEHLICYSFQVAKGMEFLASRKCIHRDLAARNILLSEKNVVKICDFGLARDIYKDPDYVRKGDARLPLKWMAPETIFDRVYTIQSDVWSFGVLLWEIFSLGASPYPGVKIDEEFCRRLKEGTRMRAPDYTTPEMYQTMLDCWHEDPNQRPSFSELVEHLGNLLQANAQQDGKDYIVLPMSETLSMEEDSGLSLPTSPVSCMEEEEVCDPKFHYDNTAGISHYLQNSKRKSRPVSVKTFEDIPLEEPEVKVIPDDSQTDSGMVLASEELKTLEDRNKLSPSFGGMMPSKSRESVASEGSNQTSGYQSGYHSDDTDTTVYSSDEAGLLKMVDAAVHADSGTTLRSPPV
PDGFR-β, sequence (P09619 33-1106, species assumed): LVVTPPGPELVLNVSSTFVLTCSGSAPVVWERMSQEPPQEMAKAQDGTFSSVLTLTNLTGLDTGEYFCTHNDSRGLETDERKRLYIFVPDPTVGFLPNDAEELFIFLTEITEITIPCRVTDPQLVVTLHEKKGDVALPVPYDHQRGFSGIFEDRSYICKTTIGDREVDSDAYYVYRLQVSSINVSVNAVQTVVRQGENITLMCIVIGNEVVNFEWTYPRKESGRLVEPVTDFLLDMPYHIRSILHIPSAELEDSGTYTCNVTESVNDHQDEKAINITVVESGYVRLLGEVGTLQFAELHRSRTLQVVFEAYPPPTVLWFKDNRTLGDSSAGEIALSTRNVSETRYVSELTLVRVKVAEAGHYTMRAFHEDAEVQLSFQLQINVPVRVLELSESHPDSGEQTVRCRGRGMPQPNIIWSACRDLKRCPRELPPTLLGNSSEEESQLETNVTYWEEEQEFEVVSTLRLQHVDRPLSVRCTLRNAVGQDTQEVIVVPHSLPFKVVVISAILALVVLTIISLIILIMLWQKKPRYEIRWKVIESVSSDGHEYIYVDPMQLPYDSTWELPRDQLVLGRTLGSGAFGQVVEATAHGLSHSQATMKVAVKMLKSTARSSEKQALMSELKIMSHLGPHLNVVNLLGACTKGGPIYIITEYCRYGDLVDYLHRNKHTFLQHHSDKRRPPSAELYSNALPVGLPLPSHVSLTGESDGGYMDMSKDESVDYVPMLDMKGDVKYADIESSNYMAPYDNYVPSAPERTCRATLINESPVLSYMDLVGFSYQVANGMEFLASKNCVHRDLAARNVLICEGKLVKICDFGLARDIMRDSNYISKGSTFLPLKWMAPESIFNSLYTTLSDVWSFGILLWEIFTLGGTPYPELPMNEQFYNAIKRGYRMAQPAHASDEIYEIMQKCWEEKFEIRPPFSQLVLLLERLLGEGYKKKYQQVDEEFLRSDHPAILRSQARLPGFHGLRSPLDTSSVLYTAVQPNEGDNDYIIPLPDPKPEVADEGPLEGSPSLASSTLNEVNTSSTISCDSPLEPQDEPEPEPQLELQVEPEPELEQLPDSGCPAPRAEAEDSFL
JAK2V617F, sequence (O60674 whole entry V617F): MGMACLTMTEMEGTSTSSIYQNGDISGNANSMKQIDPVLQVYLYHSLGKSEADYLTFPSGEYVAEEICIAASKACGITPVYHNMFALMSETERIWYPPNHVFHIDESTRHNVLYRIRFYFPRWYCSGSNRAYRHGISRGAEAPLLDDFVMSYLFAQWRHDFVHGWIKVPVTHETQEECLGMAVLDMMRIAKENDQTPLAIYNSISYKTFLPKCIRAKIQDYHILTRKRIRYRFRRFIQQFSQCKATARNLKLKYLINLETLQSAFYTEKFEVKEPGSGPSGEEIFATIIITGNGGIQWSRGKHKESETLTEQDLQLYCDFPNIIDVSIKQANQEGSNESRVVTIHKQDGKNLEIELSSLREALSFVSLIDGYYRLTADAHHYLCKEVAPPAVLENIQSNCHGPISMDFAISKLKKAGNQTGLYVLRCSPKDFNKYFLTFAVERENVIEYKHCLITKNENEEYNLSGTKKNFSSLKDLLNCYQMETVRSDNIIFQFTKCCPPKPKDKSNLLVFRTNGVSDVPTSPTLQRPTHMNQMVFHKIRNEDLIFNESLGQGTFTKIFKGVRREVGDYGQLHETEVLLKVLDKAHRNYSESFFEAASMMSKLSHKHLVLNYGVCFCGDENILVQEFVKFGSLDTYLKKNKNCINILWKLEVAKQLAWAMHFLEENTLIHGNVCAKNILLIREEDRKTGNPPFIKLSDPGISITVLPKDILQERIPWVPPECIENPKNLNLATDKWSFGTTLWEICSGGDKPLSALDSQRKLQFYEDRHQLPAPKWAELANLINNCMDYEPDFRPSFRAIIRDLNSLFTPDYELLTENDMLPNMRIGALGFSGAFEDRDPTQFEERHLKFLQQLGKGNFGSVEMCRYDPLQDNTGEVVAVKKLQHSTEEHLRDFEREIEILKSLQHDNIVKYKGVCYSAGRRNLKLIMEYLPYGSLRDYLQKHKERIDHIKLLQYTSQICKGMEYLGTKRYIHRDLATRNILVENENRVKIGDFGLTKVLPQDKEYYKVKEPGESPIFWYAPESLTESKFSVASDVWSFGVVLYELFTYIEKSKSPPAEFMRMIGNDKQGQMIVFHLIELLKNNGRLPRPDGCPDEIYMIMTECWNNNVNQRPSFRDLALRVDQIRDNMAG
VEGFR-2 (Homo sapiens, UniProt P35968), sequence (P35968 20-1356, species assumed): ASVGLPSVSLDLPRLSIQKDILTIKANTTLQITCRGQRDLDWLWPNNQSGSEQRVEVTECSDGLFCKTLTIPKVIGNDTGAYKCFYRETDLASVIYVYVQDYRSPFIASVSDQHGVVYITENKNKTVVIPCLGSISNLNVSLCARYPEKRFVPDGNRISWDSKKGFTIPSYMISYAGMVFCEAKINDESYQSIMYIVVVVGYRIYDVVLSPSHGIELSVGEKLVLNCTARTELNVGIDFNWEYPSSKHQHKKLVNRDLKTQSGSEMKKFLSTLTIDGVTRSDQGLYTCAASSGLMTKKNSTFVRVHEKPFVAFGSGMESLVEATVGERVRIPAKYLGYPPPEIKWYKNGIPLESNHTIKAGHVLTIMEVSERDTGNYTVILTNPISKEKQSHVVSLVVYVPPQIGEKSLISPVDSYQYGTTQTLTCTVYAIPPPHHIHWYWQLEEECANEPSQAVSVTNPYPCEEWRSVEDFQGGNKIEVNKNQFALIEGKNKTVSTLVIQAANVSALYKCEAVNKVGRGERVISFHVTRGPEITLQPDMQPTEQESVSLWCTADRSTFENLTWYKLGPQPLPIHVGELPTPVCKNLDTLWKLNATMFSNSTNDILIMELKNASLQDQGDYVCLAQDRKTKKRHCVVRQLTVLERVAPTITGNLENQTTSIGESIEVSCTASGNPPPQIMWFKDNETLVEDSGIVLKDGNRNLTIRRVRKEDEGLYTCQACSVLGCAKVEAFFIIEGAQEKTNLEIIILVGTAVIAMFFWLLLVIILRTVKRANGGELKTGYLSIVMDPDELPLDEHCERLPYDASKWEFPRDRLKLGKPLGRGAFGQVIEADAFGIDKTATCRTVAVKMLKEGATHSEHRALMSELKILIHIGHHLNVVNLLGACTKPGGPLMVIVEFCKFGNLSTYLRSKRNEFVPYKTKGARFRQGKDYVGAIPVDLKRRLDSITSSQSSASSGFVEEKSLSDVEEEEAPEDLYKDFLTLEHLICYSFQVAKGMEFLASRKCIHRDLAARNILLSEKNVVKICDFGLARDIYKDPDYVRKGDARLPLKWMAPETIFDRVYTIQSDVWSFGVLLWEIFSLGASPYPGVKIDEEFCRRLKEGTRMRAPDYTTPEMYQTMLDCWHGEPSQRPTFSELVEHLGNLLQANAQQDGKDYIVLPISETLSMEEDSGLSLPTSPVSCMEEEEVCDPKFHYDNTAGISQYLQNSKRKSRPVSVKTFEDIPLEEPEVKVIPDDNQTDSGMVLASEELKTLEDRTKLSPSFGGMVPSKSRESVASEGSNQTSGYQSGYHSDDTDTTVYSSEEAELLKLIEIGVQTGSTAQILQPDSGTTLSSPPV

Compound: Cn1c(=O)n(-c2ccc(C(C)(C)C#N)cc2)c2c3cc(-c4cnc5ccccc5c4)ccc3ncc21 [BEZ235]
- levels of phosphorylated RPS6 [1]: significantly reduce
- mTORC2 kinase activity (mTORC2): blocks
- effectiveness at slowing tumor growth in tumors with high levels of hypoxia (HCT116) compared with low levels (786O) [2]: not found to work better
- mTORC1 kinase activity (mTORC1): blocks

Compound: Clc1ccc(Nc2nnc(Cc3ccncc3)c3ccccc23)cc1 [PTK787, N-(4-chlorophenyl)-4-(pyridin-4-ylmethyl)phthalazin-1-amine]
- tumor growth as compared to control ([3]; 50 mg/kg 5×/week p.o., p=0.1209): reduced the growth of the tumor
- PFS HR ([4]; All CONFIRM 1 & 2 High LDH Patients, N 566): 0.62
- PFS HR ([4]; All CONFIRM 1 & 2 Patients, N 2023): 0.82
- duration of stable disease (pancreatic cancer): 2-6 months
- patients with stable disease as the best response (pancreatic cancer; six of eleven patients): 55%
- tumor burden as compared to control ([5]; 50 mg/kg 5×/week p.o., p=0.7805): no difference in tumor burden
- tumor burden as compared to control ([5]; Erlotinib section, FIG. 5B, 1×/week p.o., p=0.8548): no difference in tumor burden
- tumor burden as compared to control ([5]; XL765 section, FIG. 4B, 30 mg/kg 5×/week p.o., p=0.7682): no difference in tumor burden
- PFS HR ([6]; CONFIRM 2 - High LDH, N 250): 0.63
- PFS HR ([6]; CONFIRM 2 - Low LDH, N 605, P 0.58): 0.95
- effectiveness at slowing tumor growth in tumors with high levels of hypoxia (HCT116) compared with low levels (786O) [2]: more effective
- PFS HR ([7]; CONFIRM 1 - High LDH, N 316, P 0.002): 0.61
- PFS HR ([7]; CONFIRM 1 - Low LDH, N 852, P 0.43): 0.93

Compound: COc1cc(Nc2nc3ccccc3nc2NS(=O)(=O)c2ccc(NC(=O)c3ccc(C)c(OC)c3)cc2)cc(OC)c1 [XL765]
- tumor growth rate as compared to control ([3]; 30 mg/kg 5×/week p.o., p=0.009): reduced the growth rate of the tumor
- effectiveness at slowing tumor growth in tumors with high levels of hypoxia (HCT116) compared with low levels (786O) [2]: more effective

Compound: C#Cc1cccc(Nc2ncnc3cc(OCCOC)c(OCCOC)cc23)c1 [erlotinib]
- progression free survival [8]: 3.8 months
- survival [8]: 6.4 months
- progression free survival ([9]; erlotinib 150 mg orally once daily): 2.8 months
- overall survival ([9]; difference not statistically significant): 12 weeks
- tumor growth rate as compared to control ([3]; 1×/week p.o., doses 40, 25, 10 mg/kg in the 3rd table, p=0.0224): reduced the growth rate of the tumor
- JAK2V617F activity (JAK2V617F): potent inhibitor
- progression free survival [10]: 9.9 weeks
- rate of one year survival [10]: 31.2%
- response duration, median [10]: 34.3 weeks
- survival [10]: 6.7 months
- tumor response [10]: 8.9%
- effectiveness at slowing tumor growth in tumors with high levels of hypoxia (HCT116) compared with low levels (786O) [2]: more effective

Compound: Nc1ccn([C@@H]2O[C@H](CO)[C@@H](O)C2(F)F)c(=O)n1 [gemcitabine]
- progression free survival [8]: 3.5 months
- survival [8]: 6.0 months

Compound: Cc1ccc(Nc2nccc(N(C)c3ccc4c(C)n(C)nc4c3)n2)cc1S(N)(=O)=O.Cl [pazopanib]
- angiogenesis (angiogenesis): inhibited
- ligand-induced autophosphorylation of PDGFR-β (PDGFR-β): inhibited
- VEGF-induced VEGFR-2 phosphorylation (VEGFR-2 [11]; mouse lungs): inhibited
- growth of some human tumor xenografts (human tumor xenografts): inhibited

Compound: CNC(=O)c1cc(Oc2ccc(NC(=O)Nc3ccc(Cl)c(C(F)(F)F)c3)cc2)ccn1 [sorafenib]
- effectiveness at slowing tumor growth in tumors with high levels of hypoxia (HCT116) compared with low levels (786O) [2]: not found to work better

Compound: CCN(CC)CCNC(=O)c1c(C)[nH]c(/C=C2\C(=O)Nc3ccc(F)cc32)c1C [sutent]
- effectiveness at slowing tumor growth in tumors with high levels of hypoxia (HCT116) compared with low levels (786O) [2]: not found to work better

Compound: CO[C@H]1C[C@@H]2CC[C@@H](C)[C@@](O)(O2)C(=O)C(=O)N2CCCC[C@H]2C(=O)O[C@H]([C@H](C)C[C@@H]2CC[C@@H](OC(=O)C(C)(CO)CO)[C@H](OC)C2)CC(=O)[C@H](C)/C=C(\C)[C@@H](O)[C@@H](OC)C(=O)[C@H](C)C[C@H](C)/C=C/C=C/C=C/1C [temsirolimus]
- activity of mTOR [12]: inhibited
- levels of HIF-1 and HIF-2 alpha, and vascular endothelial growth factor [12]: reduced levels
- survival (RCC and poor prognosis; [15]): 6.9 months
- survival (RCC and poor prognosis; [16]): 11.7 months
- overall survival compared with interferon-alpha alone ([13]; combination of temsirolimus and interferon-alpha): did not result in a significant increase in overall survival
- increase in median overall survival compared to interferon-alpha ([13]; human, in vivo): 49%
- progression-free survival [13]: 5.5 months
- median overall survival [13]: 10.9 months
- effectiveness at slowing tumor growth in tumors with high levels of hypoxia (HCT116) compared with low levels (786O) [2]: not found to work better

Compound: Cediranib
- angiogenesis (angiogenesis): inhibited
- ligand-induced autophosphorylation of VEGFR-2 (VEGFR-2 [14]): inhibited
- VEGF-induced VEGFR-2 phosphorylation (VEGFR-2 [11]; mouse): inhibited
- growth of some human tumor xenografts (human tumor xenografts): inhibited

Compound: interferon-alpha
- survival (RCC and poor prognosis; [15]): 4.2 months
- survival (RCC and poor prognosis; [16]): 10.4 months
- patients with decreased tumor size (renal cancer): 12%
- progression-free survival [13]: 3.1 months
- median overall survival [13]: 7.3 months

Compound: panitumumab: Anti-EGFR
- effectiveness at slowing tumor growth in tumors with high levels of hypoxia (HCT116) compared with low levels (786O) [2]: not found to work better
